Laboratory results published in patent US9340596B2, “Fusion protein comprising tumor necrosis factor related apoptosis inducing ligand and integrin ligand and use thereof” (NANJING UNIVERSITY, priority 2007, dated 2016).

What was measured:
[1] = test system: COLO-205 colon cancer cells; test: Anti-tumor efficacy on COLO-205 colon cancer model; format: in vivo, nude mice
Protocol: (§1) 5-6 week-old female nude mice were purchased from Shanghai Experimental Animal Center. The nude mice were injected through their tail veins with 100 μg of a specific antibody, i.e., purified Asialo GM-1 antibody (Wako Chemicals Inc., Japan) that blocks natural killer cells. After 24 hours, the upper right sides of the back of the nude mice were inoculated subcutaneously with 100,000 COLO-205 or HT-29 colon cancer cells. When the tumors reached 70 mm3, random grouping and treatment began. The recombinant TRAIL and its variant proteins were administered intraperitoneally, once daily for 10-14 days. The water-soluble camptothecin CPT-11 (11-hydroxy-camptothecin; Product Name: Irinotecan Hydrochloride Injection; Pharmacia/Upjohn Company's product) was administered intravenously once a week, two times in total. The recombinant proteins and camptothecin were diluted with a phosphate buffer. The tumor size was measured with a caliper, and the calculation formula was: […].
Two kinds of colon cancer models, COLO-205 and HT-29, were used to test the anti-tumor activity of the TRAIL variant in the athymic nude mice. Because COLO-205 colon cancer cells were sensitive to TRAIL, the therapeutic effect of separate use of TRAIL and TRAIL variant was assessed on this model. On the 8th day after the nude mice were inoculated with tumor cells, administration of drugs through the tail vein began for ten days in succession. The mice were divided into four groups; 100 μg TRAIL variant group, 20 μg TRAIL variant group, 100 μg wild-type TRAIL group, and PBS control group. […] Moreover, the TRAIL variant's inhibition of tumor growth was dose-dependent.
The invention also provides the anti-tumor effect of combined use of TRAIL variant and chemotherapeutic drug CPT-11. Protein injection was carried out by intraperitoneal injection once a day for TRAIL or TRAIL variant, for two weeks total, and intravenous injection once every two days from CPT-11 via tail veins, seven times in total. […] This effect was even better than the higher dose of the TRAIL+CPT-11 combined treatment group ([…]) (89%, P=0.001, 36 days).

[2] = test system: Caspase-8−/− deficient Jurkat cells; test: Apoptosis induction in Caspase-8-/- deficient Jurkat cells
Source text: (§4) The fluorescence detection method was used to test the activity of Caspase-8 and Caspase-3 in the Jurkat cells after treatment of TRAIL and TRAIL variants.

primary liver cells = test: Cell toxicity on primary liver cells; format: cell-based; conditions: 300 ng/ml, 24 hours
Protocol: (§2) Different from the tumor cells, the normal human foreskin microvascular endothelial cells, 293T kidney cells and primary liver cells were treated with 300 ng/ml of the TRAIL variants or TRAIL for 24 hours.

[3] = test system: COLO-205 colon cancer cells; test: Cell apoptosis, Annexin V and PI double staining, COLO-205; format: cell-based
Protocol: (§3) After the cells treated with TRAIL and its variant were digested with trypsin, they were removed from the cultivation plate, washed twice with phosphate buffer solution, and centrifuged for 5 min at 300 g centrifugal force. The supernatants were removed, and the cells were re-suspended in 100 ul of binding buffer solution. Then, Annexin V-FITC (BD Pharmgen) was added until a final concentration of 2 μg/ml was achieved, followed by incubation at room temperature. After 10 min, 400 ul of binding buffer was added, and the cells were transferred to a flow analysis tube. 1 μg of […] (Sigma Corporation) was added to each tube. The cells were analyzed with a flow cytometer within 30 min. At least three separate tests should be carried out for each cell line.

COLO-205 tumor tissues = test: Drug distribution test of 125I-labeled recombinant proteins in tumor tissues; format: in vivo; conditions: COLO-205 tumor-bearing nude mice, 240 minutes after injection
Protocol: Separate injection from tail veins of 100 μl containing […] of 125I-labeled human TRAIL or its variant protein into the COLO-205 tumor bearing nude mice. 5, 30, 60, 120 and 240 minutes after injection, the tumor tissues were peeled off separately and weighed, and the radiation amount of the tumor tissues were measured with a liquid scintillation counter. The amount of radiation in the tumor tissues is represented by the percentage of measuring radiation quantity per gram of tissues and the injected radiation quantity (% ID/g). The results are the average value of three independent tests.
The recombinant TRAIL and the TRAIL variant protein were labeled with a radioisotope of iodine (^125I) using a labeling kit (Pierce Corp.). The labeling results were as follows: the specific activity of ^125I-TRAIL was 7.86 μCi/μg protein, and the specific activity of ^125I-TRAIL variant was 7.49 μCi/μg protein. After the nude mice were inoculated with COLO-205 colon cancer, and when the tumor size reached 400-500 mm3, they were randomly grouped into wild-type and variant group. Each group included five time points: 5 min, 30 min, 60 min, 120 min and 240 min, and each time point included three animals. […] At each time point, the mice were sacrificed, the tumors were dissected by surgery, and the radiation dose was measured through a liquid scintillation counter. […]

[4] = test system: human foreskin microvascular endothelial cells; test: Cell adhesion assay of human foreskin microvascular endothelial cells on protein-coated wells; format: cell-based
Protocol: The TRAIL and its variant protein are coated on a 96-well PVC plate overnight at 4° C. The coated 96-well plate was rinsed with 0.9% physiological saline, and then blocked for 1 h at 1640 culture medium containing 2% bovine serum albumin, and then rinsed again. After the human foreskin microvascular endothelial cells were digested, washed three times with phosphate buffer and re-suspended into the complete RPMI1640 medium, it was then added to the 96-well plate coated with TRAIL and its variant (40,000 cell per well). After the cells were incubated for 1.5 hours in an incubator containing 5% carbon dioxide, they were washed three times with physiological saline to remove the non-adherent cells. The adherent cells were fixed for 30 min with phosphate buffer solution (pH 7.3) containing 4% formalin and 2% sucrose, and then stained with 0.5% crystal violet. The fixed stained cells were rinsed several times, then dissolved with […] DMSO to test the absorbance values at 540 nm. All the tests should be carried out at least three times independently.

[5] = test system: FADD−/− deficient Jurkat cells; test: Apoptosis induction in FADD-/- deficient Jurkat cells
Source text: as §4

[6] = test system: normal human foreskin microvascular endothelial cells; test: Cell toxicity on normal endothelial cells; format: cell-based; conditions: 300 ng/ml, 24 hours
Protocol: as §2

[7] = test system: human foreskin microvascular endothelial cells; test: Binding assay of fluorescein-labeled TRAIL and its variant with endothelial cells (flow cytometer); conditions: fluorescein-labeled protein, flow cytometry
Protocol: The TRAIL and its variant were labeled with fluorescein (Sigma company), and the labeled proteins were separated from free fluorescein through a Sephadex-G25 size exclusion column. After human foreskin microvascular endothelial cells were digested by trypsin, washed twice with ice-cold phosphate buffer containing 2% fetal calf serum, and then re-suspended, they were added with 1 μg of labeled protein for incubation for 1 h at 4° C. The fluorescent-labeled bovine serum albumin was used as a control of the test. After being washed three times, the binding capacity of the stained cells was analyzed with a flow cytometer (Becton Dickinson Company).

[8] = test system: MDA-MB-231 breast cancer cells; test: Cell apoptosis, Annexin V and PI double staining, MDA-MB-231; format: cell-based
Protocol: as §3

Jurkat T lymphoma cells = test: Cell apoptosis, Annexin V and PI double staining, Jurkat; format: cell-based
Protocol: as §3

HT-29 colon cancer cells = test: Anti-tumor efficacy on HT-29 colon cancer model; format: in vivo, nude mice; conditions: TRAIL-insensitive HT-29 model
Protocol: as §1
The invention also provides the anti-tumor effect of combined use of TRAIL variant and chemotherapeutic drug CPT-11. Protein injection was carried out by intraperitoneal injection once a day for TRAIL or TRAIL variant, for two weeks total, and intravenous injection once every two days from CPT-11 via tail veins, seven times in total. […]

293T kidney cells = test: Cell toxicity on 293T kidney cells; format: cell-based; conditions: 300 ng/ml, 24 hours
Protocol: as §2

| Molecule | tumor growth inhibition (in words) ([1]; COLO-205, individual injection of low dose CPT-11 (6.25 mg/kg/each), vs PBS control) | induction of cell apoptosis [2] | cell toxicity (primary liver cells) | medial lethal dose ([3]; COLO-205) | apoptosis rate ([3]; COLO-205 cells, 2.43 ng/ml) | tumor inhibition rate ([1]; COLO-205, 90 μg/day/each combined with CPT-11 6.25 mg/kg/each, 36 days) | tumor inhibition rate ([1]; COLO-205, 100 μg, used alone, ten days in succession, 37th day, vs PBS control) | mice whose tumors disappeared, among ten animals ([1]; COLO-205, 270 μg/day/each + CPT-11 combined treatment) | tumor inhibition effect ([1]; COLO-205, 270 μg/day/each combined with CPT-11 6.25 mg/kg/each, 36 days) | dose required for the same therapeutic effect, relative to TRAIL variant ([1]; COLO-205 models, combined treatment program with CPT-11) | distribution in the tumor tissues (COLO-205 tumor tissues) | reduction by free protein of endothelial cells adhered to microplates coated with RGD-L-TRAIL (competitive test) ([4]; free protein added to plates coated with TRAIL variant protein) | adhesion of human foreskin microvascular endothelial cells to culture plate wells coated with the protein ([4]; protein coated on 96-well plate, cells incubated 1.5 hours) | induction of cell apoptosis [5] | cell toxicity [6] | binding capacity with human foreskin microvascular endothelial cells [7] | medial lethal dose [8] | medial lethal dose (Jurkat T lymphoma cells) | dose required, relative to TRAIL variant (HT-29 colon cancer cells) | cell toxicity (293T kidney cells) |
| --- | --- | --- | --- | --- | --- | --- | --- | --- | --- | --- | --- | --- | --- | --- | --- | --- | --- | --- | --- | --- |
| CCc1c2c(nc3ccc(OC(=O)N4CCC(N5CCCCC5)CC4)cc13)-c1cc3c(c(=O)n1C2)COC(=O)[C@]3(O)CC [CPT-11, reference compound] | slightly inhibit the tumor growth |  |  |  |  |  |  |  |  |  |  |  |  |  |  |  |  |  |  |  |
| TRAIL: recombinant wild-type human tumor necrosis factor-related apoptosis-inducing ligand, comparator |  | no induced cell apoptosis | No obvious cell toxicity | 3.5 ng/mL | 43.7% | 67.8% | 37% | 6 mice | 89% | 3-9 times | difficult to detect | has no such ability | do not adhere | no induced cell apoptosis | No obvious cell toxicity | very weak | 2.3 ng/mL | 6.7 ng/mL | at least 2 times | No obvious cell toxicity |
